In the test the test system is LpxC enzyme. Put plainly: LpxC enzyme assay (RapidFire high-throughput mass spectrometry). In kind it is biochemical. In a few lines: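 0.2 nM enzyme with 1.0 μM UDP-3-O-(R-3-hydroxymyristoyl)-N-acetylglucosamine in 25 mM HEPES pH 7.3, 150 mM NaCl, 2.0 mM DTT, 0.01% BSA, 2% DMSO; 60 min at room temperature, quenched with HCl. Substrate and product quantified by RapidFire mass spectrometry; percent conversion gives percent inhibition versus DMSO control.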

The mark [1] stands for this setting: concentration 0.10 (unit not given).
[2] abbreviates: concentration 0.20 (unit not given).
[3] abbreviates: concentration 0.39 (unit not given).
[4] abbreviates: concentration 0.78 (unit not given).
[5] abbreviates: concentration 1.56 (unit not given).
The mark [6] stands for this setting: concentration 3.13 (unit not given).
[7] abbreviates: concentration 6.25 (unit not given).
The mark [8] stands for this setting: concentration 12.50 (unit not given).
Where [9] appears, read: concentration 25 (unit not given).
Setting [10] is: concentration 50 (unit not given).

For `CN(C)C(=O)[C@H](O)[C@@H](O)C(=O)Nc1cccc(C#Cc2ccccc2)c1` [Compound 81], the “LpxC enzyme assay rating (% inhibition at indicated concentrations)” value under setting [1] was “C (less than 10% inhibition)”; the “LpxC enzyme assay rating (% inhibition at indicated concentrations)” value under setting [2] is recorded as “C (less than 10% inhibition)”; the “LpxC enzyme assay rating (% inhibition at indicated concentrations)” value under setting [3] is listed as “C (less than 10% inhibition)”; the “LpxC enzyme assay rating (% inhibition at indicated concentrations)” value under setting [4] was “C (less than 10% inhibition)”; the “LpxC enzyme assay rating (% inhibition at indicated concentrations)” value under setting [5] was “C (less than 10% inhibition)”; the “LpxC enzyme assay rating (% inhibition at indicated concentrations)” value under setting [6] is “C (less than 10% inhibition)”. Further, the “LpxC enzyme assay rating (% inhibition at indicated concentrations)” value reads like this: under setting [7], “C (less than 10% inhibition)”; under setting [8], “C (less than 10% inhibition)”; under setting [9], “C (less than 10% inhibition)”.
As to `CN(C)C(=O)[C@H](O)[C@@H](O)C(=O)N1CCN(c2ccc(-c3ccccc3)cc2)CC1` [Compound 47], the “LpxC enzyme assay rating (% inhibition at indicated concentrations)” value was “B (10-30% inhibition)” under setting [1]; “B (10-30% inhibition)” under setting [2]; “C (less than 10% inhibition)” under setting [3]; “B (10-30% inhibition)” under setting [4]; “C (less than 10% inhibition)” under setting [5]; “B (10-30% inhibition)” under setting [6]. Also, the “LpxC enzyme assay rating (% inhibition at indicated concentrations)” value under setting [7] is reported as “B (10-30% inhibition)”, the “LpxC enzyme assay rating (% inhibition at indicated concentrations)” value under setting [8] is recorded as “B (10-30% inhibition)”, the “LpxC enzyme assay rating (% inhibition at indicated concentrations)” value under setting [9] is on record as “C (less than 10% inhibition)” and the “LpxC enzyme assay rating (% inhibition at indicated concentrations)” value under setting [10] is on record as “B (10-30% inhibition)”.
In the case of `CCC(C)c1ccc(NC(=O)[C@H](O)[C@@H](O)C(=O)N(C)C)cc1` (stereo partly drawn) [Compound 50], the “LpxC enzyme assay rating (% inhibition at indicated concentrations)” value by setting is: under setting [1], “C (less than 10% inhibition)”; under setting [2], “C (less than 10% inhibition)”; under setting [3], “C (less than 10% inhibition)”; under setting [4], “B (10-30% inhibition)”; under setting [5], “C (less than 10% inhibition)”; under setting [6], “C (less than 10% inhibition)”. Further, the “LpxC enzyme assay rating (% inhibition at indicated concentrations)” value is, setting by setting: under setting [7], “B (10-30% inhibition)”; under setting [8], “B (10-30% inhibition)”; under setting [9], “C (less than 10% inhibition)”; under setting [10], “B (10-30% inhibition)”.
For the compound `CCCc1ccc(NC(=O)[C@H](O)[C@@H](O)C(=O)N(C)C)cc1` [Compound 49], the “LpxC enzyme assay rating (% inhibition at indicated concentrations)” value is recorded as “C (less than 10% inhibition)” under setting [1]; “C (less than 10% inhibition)” under setting [2]; “B (10-30% inhibition)” under setting [3]; “C (less than 10% inhibition)” under setting [4]; “C (less than 10% inhibition)” under setting [5]; “C (less than 10% inhibition)” under setting [6]. Also, the “LpxC enzyme assay rating (% inhibition at indicated concentrations)” value is, setting by setting: under setting [7], “C (less than 10% inhibition)”; under setting [8], “C (less than 10% inhibition)”; under setting [9], “B (10-30% inhibition)”; under setting [10], “C (less than 10% inhibition)”.

Values taken from patent US7553864B2, “Compounds for the treatment of inflammatory disorders and microbial diseases” (Schering Corporation, priority 2005, dated 2009).
